# Source: paper PMC11472313, “Development of Fragment-Based Inhibitors of the Bacterial Deacetylase LpxC with Low Nanomolar Activity” (Journal of Medicinal Chemistry, 2024)
# Values joined by “and” are separate entries in the source; they are usually repeats but may differ in a detail not shown here. Equal values may be shown once.
# How the values were obtained:
# E. coli LpxC C63A = target: T1, E. coli LpxC C63A (Escherichia coli, UniProt P0A725, C63A); experiment: fluorescence-based E. coli LpxC C63A enzyme inhibition assay; type: biochemical; settings: for Ki: Ki E. coli LpxC C63A, from IC50 via Cheng–Prusoff; for fold higher LpxC inhibitory activity than its enantiomer (eudysmic ratio): E. coli LpxC C63A, (S) versus (R)
# T1 construct: made in house; host or cells: E. coli BL21(DE3)
# T1 sequence (P0A725 whole entry C63A): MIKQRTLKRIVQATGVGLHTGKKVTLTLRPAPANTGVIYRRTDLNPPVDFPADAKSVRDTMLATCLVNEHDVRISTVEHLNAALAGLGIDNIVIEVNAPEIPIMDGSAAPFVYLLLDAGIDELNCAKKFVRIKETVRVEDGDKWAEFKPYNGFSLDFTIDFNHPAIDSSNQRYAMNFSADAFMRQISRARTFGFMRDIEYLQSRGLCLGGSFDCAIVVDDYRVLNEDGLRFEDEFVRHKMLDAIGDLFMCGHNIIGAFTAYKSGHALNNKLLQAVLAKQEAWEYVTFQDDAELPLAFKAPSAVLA
# Protocol: In order to determine the inhibitory activities of the compounds of interest toward E. coli LpxC, a fluorescence-based enzyme assay was deployed, in which the formed deacetylated natural product UDP-3-O-[(R)-3-hydroxymyristoyl]glucosamine (2) is transformed into a fluorescent isoindole with o-phthaldialdehyde and 2-mercaptoethanol.[48],[49] […] The KM of E. coli LpxC C63A was determined experimentally using a mass spectrometry-based LpxC assay (Figure S8, Supporting Information, vide infra).
# A fluorescence-based microplate assay for LpxC activity was performed as described by Clements et al.[48] The wells in a black, nonbinding, 96-well fluorescence microplate (Greiner Bio One, Frickenhausen) were filled with 93 μL of 26.9 μM UDP-3-O-[(R)-3-hydroxymyristoyl]-N-acetylglucosamine in assay buffer [40 mM sodium morpholinoethanesulfonic acid (pH 6.0), 80 μM dithiothreitol, 0.02% Brij 35]. In order to assay the inhibitors at final concentrations from 20 nM up to 20 μM, 2 μL of a respective dilution of the compounds in DMSO were added. The addition of 5 μL of a solution of purified LpxC (10 μg mL^–1) in assay buffer led to final concentrations of 25 μM UDP-3-O-[(R)-3-hydroxymyristoyl]-N-acetylglucosamine, 15 nM E. coli LpxC C63A, 2% DMSO, and from 20 nM up to 20 μM inhibitor. The microplate was incubated for 30 min at 37 °C in a plate shaker. Then, the biochemical reaction was stopped by adding 40 μL of 0.625 M sodium hydroxide. The reaction mixture was further incubated for 10 min and neutralized by adding 40 μL of 0.625 M acetic acid. The deacetylated product UDP-3-O-[(R)-3-hydroxymyristoyl]glucosamine was converted into a fluorescing isoindole by adding 120 μL of an o-phthaldialdehyde-2-mercaptoethanol solution, which was prepared by dissolving 10 mg of o-phthaldialdehyde in 1 mL of methanol, diluting the mixture with 24 mL of a sodium borate buffer (0.1 M), and finally adding 2.5 μL of 2-mercaptoethanol.[49] Fluorescence was measured with a TriStar^2 S LB 942 plate reader (Berthold, Bad Wildbad) at 340 nm excitation and 460 nm emission wavelengths. Each assay was performed at least three times on separate days. The IC50 values were calculated via Probit-log concentration graphs with the aid of the software Origin and were subsequently converted into Ki values using the Cheng–Prusoff equation.[75],[76]
# E. coli BL21(DE3) [1] = experiment: MIC, broth microdilution; type: cell-based; settings: 20 h, 37 °C, LB; for MIC: Escherichia coli
# Protocol: (§1) Besides measuring the inhibitory activities toward E. coli LpxC C63A, the antibacterial activities of the synthesized hydroxamic acids were evaluated by determining their minimal inhibitory concentrations (MIC) in broth dilution tests as well as by performing disc diffusion assays (Table 1).
# (§2) The MIC values of the compounds were determined by means of the microdilution method using 96-well plates.
# (§3) The overnight suspension was diluted 1:1000 in fresh LB. 10 μL of a 2-fold dilution series of the compounds in DMSO and 90 μL of LB were dispensed to each well of a 96-well plate. Then, 100 μL of the inoculated medium was added, resulting in 5 × 10^5 cfu mL^–1, 5% DMSO, and a final concentration range of the test compounds between 64 and 0.016 μg mL^–1. The plates were incubated for 20 h at 37 °C. The MIC was defined as the lowest concentration of the compounds that prevented visible growth after incubation. Each assay was performed at least three times on separate days.
# E. coli D22 [2] = experiment: MIC, broth microdilution; type: cell-based; settings: Escherichia coli, 20 h, 37 °C, LB
# Protocol: as §1, §2, §3
# E. coli BL21(DE3) [3] = experiment: disc diffusion assay; type: cell-based; settings: 0.15 μmol per 6 mm disc
# Protocol: as §1
# (§4) The disc diffusion assays against E. coli BL21(DE3) and the defective strain E. coli D22 were performed as follows: liquid cultures of the bacteria were grown overnight in lysogeny broth (LB)[73] at 37 °C and 200 rpm. 150 μL of an overnight cell suspension was spread evenly onto LB agar plates. 0.15 μmol of each compound (dissolved in 10 or 15 μL DMSO) were applied onto circular filter paper (Ø = 6 mm, Cytiva). Pure DMSO, serving as a negative control, and CHIR-090, serving as a positive control, were also spotted. The agar plates were incubated overnight at 37 °C, and the diameter of the zone of growth inhibition was measured for each compound. Each assay was performed at least three times on separate days.
# E. coli D22 [4] = experiment: disc diffusion assay; type: cell-based; settings: 0.15 μmol per 6 mm disc
# Protocol: as §1, §4
# LasB = target: T2, LasB (Pseudomonas aeruginosa, UniProt Q02RJ6); experiment: FRET-based LasB in vitro inhibition assay; type: biochemical, P. aeruginosa PA14; settings: for inhibition at 20 µM: read-out: LasB Inhibition at 20 μM
# T2 construct: The elastase LasB of P. aeruginosa is a secreted metalloprotease; endogenous in cells; host or cells: P. aeruginosa PA14 culture supernatant
# T2 sequence (Q02RJ6 198-498): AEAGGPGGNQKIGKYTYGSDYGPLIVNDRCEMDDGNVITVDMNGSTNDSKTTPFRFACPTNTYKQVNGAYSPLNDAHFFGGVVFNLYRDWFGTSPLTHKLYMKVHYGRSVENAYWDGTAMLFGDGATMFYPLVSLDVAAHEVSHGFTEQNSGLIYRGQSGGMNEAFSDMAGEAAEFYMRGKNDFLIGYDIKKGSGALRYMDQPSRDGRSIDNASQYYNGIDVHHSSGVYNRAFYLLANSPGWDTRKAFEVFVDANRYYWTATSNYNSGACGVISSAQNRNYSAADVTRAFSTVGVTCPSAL
# Protocol: Purification of LasB from P. aeruginosa PA14 supernatant and the subsequent performance of the FRET-based in vitro inhibition assay was performed as described previously.[66] The TACE (ADAM-17) inhibitor screening kit was purchased from Sigma-Aldrich (Saint Louis, MO). MMPs 1–3 along with the SensoLyte 520 Generic MMP Activity Kit Fluorimetric were purchased from AnaSpec (Fremont, CA, USA). The assays were performed according to the guidelines of the respective manufacturer. Fluorescence signals were measured using a CLARIOstar plate reader (BMG Labtech, Ortenberg, Germany).
# [5] = system: K. pneumoniae ATCC 700603; experiment: disc diffusion assay; type: cell-based, Klebsiella pneumoniae; settings: 0.15 μmol per 6 mm disc
# Protocol: In the performed disc diffusion assays, indole derivatives (S)-13h, (S)-13i, and (S)-13j caused promising halos of growth inhibition.
# The disc diffusion assays against E. coli TOP10 (Thermo Fisher, Waltham, USA), E. coli ATCC 35218, K. pneumoniae ATCC 700603, and P. aeruginosa ATCC 27853 were performed as follows: the bacteria were grown overnight on a Columbia blood agar plate (Oxoid, Basingstoke, UK), and one colony was suspended in sterile saline to yield a suspension of 0.5 McFarland standard. Using a sterile swab, the suspension was spread evenly onto Mueller–Hinton agar (Oxoid, Basingstoke, UK). 0.15 μmol of each compound (dissolved in 10 μL DMSO) was applied onto circular 6 mm diameter filter paper disks, which were then placed on the agar. After incubating the agar plates for 20 h at 37 °C, the diameter of the zone of growth inhibition was measured for each compound.
Structure (SMILES),Ki (E. coli LpxC C63A),MIC (E. coli BL21(DE3) [1]),MIC (E. coli D22 [2]),Inhibition zone E. coli BL21(DE3) (E. coli BL21(DE3) [3]),Inhibition zone E. coli D22 (E. coli D22 [4]),LasB Inhibition at 20 μM (LasB),inhibition at 20 µM (LasB),MIC E. coli BL21(DE3) (E. coli BL21(DE3) [1]),Inhibition zone K. pneumoniae ATCC 700603 [5],fold higher LpxC inhibitory activity than its enantiomer (eudysmic ratio) (E. coli LpxC C63A),IC50 (LasB)
"O=C(NO)[C@H](CN(Cc1ccccc1)Cc1ccccc1)OCc1ccc(C#Cc2ccc(CN3CCOCC3)cc2)cc1 [(S)-37, (S)-3-(Dibenzylamino)-N-hydroxy-2-[(4-{[4-(morpholinomethyl)phenyl]ethynyl}benzyl)oxy]propanamide]",> 2540 nM,> 16 µg/mL,16 µg/mL,≤6 mm,7.7 ± 1.2 mm,no inhibitory activity,< 10%,–,–,–,–
O=C(NC[C@H](OCc1ccc(C#Cc2ccc(CN3CCOCC3)cc2)cc1)C(=O)NO)c1ccc2[nH]ccc2c1 [(S)-13j],9.5 nM and 9.45 nM,1 to 4 µg/mL,0.031 µg/mL,20.0 ± 1.0 mm,29.0 ± 1.6 mm,little to no inhibitory activity,< 10%,2.0 µg/mL,8.0 ± 1.7 mm,–,–
"O=C(NC[C@H](OCc1ccc(C#Cc2ccc(CN3CCOCC3)cc2)cc1)C(=O)NO)c1ccccc1 [(S)-13a, (S)-N-{3-(Hydroxyamino)-2-[(4-{[4-(morpholinomethyl)phenyl]ethynyl}benzyl)oxy]-3-oxopropyl}benzamide]",150 nM and 149 nM,8 µg/mL,0.13 µg/mL,15.7 ± 1.6 mm,26.3 ± 1.5 mm,–,20.1 ± 3.9%,–,7.0 ± 1.0 mm,17 fold,–
Cc1noc(C)c1C(=O)NC[C@H](OCc1ccc(C#Cc2ccc(CN3CCOCC3)cc2)cc1)C(=O)NO [(S)-13n],127 ± 40 nM,16 µg/mL,0.13 µg/mL,20.8 ± 1.1 mm,>30 mm,–,92.7 ± 0.7%,–,7.0 ± 1.0 mm,–,1800 ± 150 nM
O=C(NC[C@H](OCc1ccc(C#Cc2ccc(CN3CCOCC3)cc2)cc1)C(=O)NO)c1cccc2[nH]ccc12 [(S)-13i],15.3 ± 3.6 nM,–,0.031 µg/mL,20.4 ± 1.6 mm,>30 mm,little to no inhibitory activity,27.6 ± 2.9%,–,7.3 ± 1.2 mm,–,–
"O=C(NO)[C@H](COCc1ccccc1)OCc1ccc(C#Cc2ccc(CN3CCOCC3)cc2)cc1 [(S)-11a, (S)-3-(Benzyloxy)-N-hydroxy-2-[(4-{[4-(morpholinomethyl)phenyl]ethynyl}benzyl)oxy]propanamide]",606 ± 356 nM,> 32 µg/mL,0.5 µg/mL,≤6 mm,15.4 ± 2.4 mm,–,62.3 ± 3.2%,–,–,6 fold,14300 ± 900 nM
